Results from ChEMBL document CHEMBL1141530, “Synthesis and SAR of 1-acetanilide-4-aminopyrazole-substituted quinazolines: selective inhibitors of Aurora B kinase with potent anti-tumor activity” (Bioorg Med Chem Lett, 2008).
≈ marks a conversion by molar mass, not a printed value. Calls of active or inactive are those of the source. No cut-off for these calls is given here.

Experiments:
[1] = test system: SW-620; assay: Antitumor activity against human SW620 cells xenografted in mouse assessed as reduction in tumor size at 2.5 mg/kg after 48 hrs; type: functional, organism-based; parameters: dose 2.5 mg/kg
[2] = biological target: Cytochrome P450 3A4 (Homo sapiens, UniProt P08684); assay: Inhibition of human CYP3A4; type: ADME
[3] = test system: SW-620; assay: Antiproliferative activity against human SW620 cells assessed as inhibition of DNA synthesis after 48 hrs by 2-h BrdU uptake assay; type: functional, cell-based
[4] = test system: Mus musculus; assay: Inhibition of histone-H3 phosphorylation in human SW620 cells xenografted mouse at 0.5 mg/kg/day, sc after 48 hrs; type: functional, organism-based; conditions: SW-620
[5] = test system: SW-620; assay: Antitumor activity against human SW620 cells xenografted in mouse assessed as tumor growth inhibition at 50 mg/kg after 24 hrs; type: functional; parameters: scale not given: the % may be the effect or the level left
[6] = Solubility in tris buffer at pH 9; type: physicochemical
[7] = test system: Mus musculus; assay: Inhibition of histone-H3 phosphorylation in human SW620 cells xenografted mouse at 2.5 mg/kg/day, sc after 48 hrs; type: functional; conditions: SW-620, sc, route subcutaneous
[8] = biological target: Voltage-gated inwardly rectifying potassium channel KCNH2 (Homo sapiens, UniProt Q12809); assay: Inhibition of human ERG by automated whole cell electrophysiology
Voltage-gated inwardly rectifying potassium channel KCNH2, sequence (Q12809 whole entry): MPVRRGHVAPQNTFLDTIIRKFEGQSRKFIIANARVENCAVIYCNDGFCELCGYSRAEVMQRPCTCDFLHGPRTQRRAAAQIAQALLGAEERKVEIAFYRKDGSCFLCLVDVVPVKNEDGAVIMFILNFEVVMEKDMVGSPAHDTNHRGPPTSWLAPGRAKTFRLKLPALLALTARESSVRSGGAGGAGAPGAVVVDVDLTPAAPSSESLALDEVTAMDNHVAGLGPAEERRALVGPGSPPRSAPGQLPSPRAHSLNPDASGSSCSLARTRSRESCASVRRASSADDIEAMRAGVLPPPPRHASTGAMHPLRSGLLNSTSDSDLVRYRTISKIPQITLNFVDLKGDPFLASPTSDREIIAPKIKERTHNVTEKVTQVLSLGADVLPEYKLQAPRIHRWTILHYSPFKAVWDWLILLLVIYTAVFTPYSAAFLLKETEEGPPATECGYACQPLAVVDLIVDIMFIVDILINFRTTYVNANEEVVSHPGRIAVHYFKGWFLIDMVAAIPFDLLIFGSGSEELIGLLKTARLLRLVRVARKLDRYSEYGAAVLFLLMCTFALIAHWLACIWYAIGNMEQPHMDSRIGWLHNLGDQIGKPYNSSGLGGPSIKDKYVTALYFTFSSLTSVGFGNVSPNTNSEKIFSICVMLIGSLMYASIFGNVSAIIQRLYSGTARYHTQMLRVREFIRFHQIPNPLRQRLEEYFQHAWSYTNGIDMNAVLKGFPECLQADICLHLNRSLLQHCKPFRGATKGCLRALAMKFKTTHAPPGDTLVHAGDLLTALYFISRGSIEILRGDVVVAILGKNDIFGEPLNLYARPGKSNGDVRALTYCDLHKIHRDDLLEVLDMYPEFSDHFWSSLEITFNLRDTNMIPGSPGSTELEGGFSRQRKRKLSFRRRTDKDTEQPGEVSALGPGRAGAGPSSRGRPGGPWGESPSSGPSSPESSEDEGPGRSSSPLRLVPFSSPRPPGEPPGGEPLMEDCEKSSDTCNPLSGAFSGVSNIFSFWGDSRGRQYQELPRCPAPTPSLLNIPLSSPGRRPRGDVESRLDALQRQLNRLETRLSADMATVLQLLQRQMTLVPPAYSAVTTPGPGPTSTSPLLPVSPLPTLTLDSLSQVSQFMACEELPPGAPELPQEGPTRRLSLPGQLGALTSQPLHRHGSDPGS

Cytochrome P450 3A4, sequence (P08684 whole entry): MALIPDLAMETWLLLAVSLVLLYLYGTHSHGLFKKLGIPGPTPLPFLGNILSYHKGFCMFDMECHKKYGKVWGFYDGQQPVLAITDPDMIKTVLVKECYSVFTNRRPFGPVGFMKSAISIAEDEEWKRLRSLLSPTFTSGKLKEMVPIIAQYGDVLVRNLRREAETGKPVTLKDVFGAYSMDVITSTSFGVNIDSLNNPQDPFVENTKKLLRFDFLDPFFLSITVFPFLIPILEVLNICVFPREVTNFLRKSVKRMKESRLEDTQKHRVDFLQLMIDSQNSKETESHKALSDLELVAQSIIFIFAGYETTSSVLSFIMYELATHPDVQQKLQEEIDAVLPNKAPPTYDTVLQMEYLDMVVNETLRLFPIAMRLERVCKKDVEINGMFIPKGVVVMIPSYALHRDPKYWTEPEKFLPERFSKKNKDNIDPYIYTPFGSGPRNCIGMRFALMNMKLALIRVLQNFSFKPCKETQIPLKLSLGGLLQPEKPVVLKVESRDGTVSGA

Q: For O=C(Cn1cc(Nc2ncnc3cc(OCCCN4CCC[C@@H]4COP(=O)(O)O)ccc23)cn1)Nc1cccc(F)c1F, which Activity [1] is on record?
A: Active

Q: And the IC50 [2]?
A: 6.1 µM

Q: And the IC50 [3]?
A: < 0.001 µM

Q: What about the Activity [4] of the same compound?
A: Active

Q: What about the Activity [5] of the same compound?
A: 89%

Q: What about the solubility [6] of the same compound?
A: 10000 µg/mL (≈ 16.2 mM)

Q: What about the inhibition in vivo at 2.5 mg/kg/day [7] of the same compound?
A: 75%

Q: And the IC50 [8]?
A: > 100 µM
